The values below come from patent publication US20100016207A1, “Methods and Compositions for Raising Levels and Release of Gamma Aminobutyric Acid” (priority 2005, published 2010).

Data set [1] in a line: Plasma glutamate and glutamine levels after oral glutamine. The conditions noted are these: Gln by gavage, vs saline (FIG. 4). In kind it is in vivo, Sprague Dawley rats. The method, then:
(§1) Male adult Sprague Dawley (SD) rats (˜250 g) (n=9) were reared under and exposed to a 12 hr light/dark cycle, and provided with food (16% protein) and water ad libitum. Gln (0.5 grams per kilogram (g/Kg) or 1.0 g/Kg, in saline) or saline were administered by gavage. Rats were sacrificed by decapitation 2.5 hours (h) later.
(§2) Data are presented as mean+/−S.E.M. ANOVA or t-test was used to determine differences between groups (significance level, p<0.05).

Data set [2] concerns GABA release in rat striatum. The experiment in a line: Microdialysis of spontaneous and NMDA-evoked GABA release in rat striatum. The conditions noted are these: striatal microdialysis, mean±S.E.M. In kind it is in vivo, rats. The method, then: (§3) GABA was measured by HPLC, using an ODS column and OPA-sulfite derivation with electrochemical detection. OPA-sulfite HPLC-EC derivation was used to measure GABA levels in both brain tissue and microdialysis samples. The samples were derivatized at 4° C. to allow usage of an auto-sampler (Alltech 580). The detector used was an ESA Coulochem® II 5100A with an ESA microdialysis cell.
as §2
Microdialysis was carried out in freely moving rats. Rats were anesthetized, and CMA/11 guide cannulas were permanently implanted into right striatum (AP=+0.5, ML=−3.0 from Bregma, DV=−3.3 mm from Dura) 1 week prior to microdialysis sampling. Dialysis collection was performed using a CMA/11 probe (4 mm), perfused with artificial cerebrospinal fluid (aCSF) at […] and collected at 20 min intervals.
GABAergic neurons were stimulated by NMDA (500 μM) in aCSF, 1 hr after Gln administration by gavage.

The subject of data set [3] is brain (striatal) GABA, glutamine and glutamate levels. The experiment in a line: Striatal tissue neurotransmitter contents after oral glutamine (HPLC-EC). Format: in vivo, Sprague Dawley rats. The conditions noted are these: Gln by gavage, striata 2.5 hrs after dosing, vs saline (FIG. 3). The method, then: as §1
To measure GABA contents, brains were quickly dissected on a chilled dissection board. Striata were homogenized with HClO4 and neutralized with 0.1 M Borate buffer (1:10). Data were normalized by the wet weights of the samples.
as §3, §2

In the case of `NC(=O)CC[C@H](N)C(=O)O` [Gln, glutamine], in data set [1], the “plasma Gln levels” value was “increased” and the “plasma Glu levels” value is listed as “not”. Further, the “Maximal spontaneous GABA release” value in data set [2] (Gln by gavage, freely moving rats, saline 111±7%, p<0.05 (FIG. 6)) worked out at 141±12%. In addition, the “NMDA-evoked GABA release” value in data set [2] (NMDA 500 μM in aCSF 1 hr after Gln by gavage, saline 177±40% (FIG. 7)) was found to be 252±37%. In data set [3], the “striatal Gln levels” value is reported as “significantly increased” and the “striatal Glu levels” value is “slightly decreased”.
